Data published in patent US11448964B2, “Coating compositions for use with an overcoated photoresist” (Rohm and Haas Electronic Materials Korea Ltd., priority 2016, dated 2022).

Assay: Solubility of thermal acid generators in organic solvents (super-saturated solution, shaken 16 hours, filtered, solid content by Thermal Gravimetric Analysis)
Type: physicochemical
Conditions: room temperature, TGA; for Solubility in HBM (solid content of filtered solution): 2-hydroxyisobutyric acid methyl ester (HBM); for Solubility in EL (solid content of filtered solution): ethyl lactate (EL); for Solubility in PGME (solid content of filtered solution): propylene glycol methyl ether (PGME)

SMILES	Solubility in HBM (solid content of filtered solution) [wt. %]	Solubility in EL (solid content of filtered solution) [wt. %]	Solubility in PGME (solid content of filtered solution) [wt. %]
Cc1ccccn1 [Example 1, 2-methylpyridin-1-ium 4-methylbenzenesulfonate]	20	29	27
COc1ccncc1 [Example 2, 4-methoxypyridin-1-ium 4-methylbenzenesulfonate]	18	32	26
